Like-named read-outs stand apart in the source and are kept apart here.
Tests used:
[1] = tested on: yeast 20S proteasome, trypsin-like (T-L) activity; conditions: luminogenic enzyme assay; cited from earlier work
[2] = tested on: yeast 20S proteasome, chymotrypsin-like (ChT-L) activity; conditions: luminogenic enzyme assay; cited from earlier work
[3] = tested on: human proteasome; design: method as in PMID 16286248; conditions: cited from earlier work
[4] = molecular target: T1, yeast 20S proteasome (Saccharomyces cerevisiae, UniProt P25043+P30656+P38624); conditions: cited from earlier work
T1 construct: Crystals of the 20S proteasome from S. cerevisiae were grown in hanging drops; endogenous in cells; host or cells: S. cerevisiae (complex purified from yeast by a cited earlier protocol)

[5] = molecular target: yeast 20S proteasome, caspase-like (C-L) activity; conditions: luminogenic enzyme assay; cited from earlier work
[6] = tested on: yeast 20S proteasome, chymotrypsin-like (ChT-L) activity; assay: luminogenic enzyme assay, chymotrypsin-like activity; assay type: biochemical
Description: The proteasome inhibitory activity of the unnatural analog, homoSalA, was measured in a luminogenic enzyme assay in comparison to SalA enabling assessment of all three active sites of yCP.

[7] = molecular target: T1, yeast 20S proteasome; assay: X-ray crystallography of yeast 20S proteasome:ligand complex, mode of action; assay type: binding; conditions: yCP:homoSalA crystal structure, crystals soaked at 5 mM; no tetrahydropyran ring formation
Description: Therefore, we elucidated the yCP:homoSalA complex at molecular resolution to investigate its mode of action. Active yCP crystals were soaked with final compound concentrations of 5 mM for 24 h. Subsequently, diffraction data were recorded to 2.9 Å resolution (Table 2) and data processing, as well as structural refinement, were performed according to previous protocols. The crystallographic data were refined to a final Rfree value of 23.3% with root mean square deviation bond and angle values less than 0.007 Å and 1.1°, respectively (PDB ID 6GOP, Table 2). […] While the active site nucleophile Thr1O^γ opens the β-lactone ring, the positively charged Thr1NH3^+-terminus acts as a Brønsted acid generating a C4-hydroxyl group from the hydrolyzed β-lactone. […]
While the electron density map offered no evidence for fluoride elimination, the complex structure determined after 24 h crystal soaking time depicts complete displacement of the leaving group. […]
Crystals of the 20S proteasome from S. cerevisiae were grown in hanging drops at 20 °C as previously described and incubated for […] with homoSalA at 5 mM. […] Crystals were soaked in a cryoprotecting buffer (30% MPD, 20 mM of magnesium acetate, 100 mM MES (pH 6.9)) and frozen in a stream of liquid nitrogen gas at 100 K. X-ray intensities were evaluated using the XDS program package. […]

[8] = tested on: chymotrypsin-like activity of the proteasome; design: method as in PMID 7732382; conditions: cited from earlier work

Structure (SMILES)	IC50 [1] [nM]	ChT-L Activity 20S Proteasome (IC50, nM) [2]	IC50 [2] [nM]	IC50 [3] [nM]	mode of action (reversibility of proteasome inhibition) ([4]; chloro-ethyl moiety forms a tetrahydrofuran ring)	IC50 [5] [nM]	potency towards caspase- and trypsin-like activities relative to chymotrypsin-like activity [6]	mode of action (reversibility of proteasome inhibition) [7]	mode of action (reversibility of proteasome inhibition) [4]	IC50 [8] [nM]
C[C@@]12OC(=O)[C@]1([C@@H](O)[C@@H]1C=CCCC1)NC(=O)[C@@H]2CCCl [(–)-SalA (1), salinosporamide A]	39 ± 7	sub-nanomolar range	0.8 ± 0.08	1.3	irreversibly blocks the CP	111 ± 22	–	–	–	–
C[C@@]12OC(=O)[C@]1([C@@H](O)[C@@H]1C=CCCC1)NC(=O)[C@@H]2CCCCl [(–)-homoSalA (3), (–)-homosalinosporamide A]	118 ± 28	sub-nanomolar range	0.7 ± 0.04	–	–	144 ± 12	two orders of magnitude less potent	reversible binder	–	–
CC[C@H]1C(=O)N[C@@]2([C@@H](O)[C@@H]3C=CCCC3)C(=O)O[C@@]12C [SalB, salinosporamide B]	–	–	–	–	–	–	–	–	slow reversible CP inhibitor	–
CC(C)[C@H](O)[C@@]12NC(=O)[C@H](C)[C@@H]1OC2=O [omuralide (5), omuralide]	–	–	–	–	–	–	–	–	–	49
